Results on one compound are retold here after patent publication US20090269795A1, “Mutant alpha4betadelta GABAA receptor and methods of treating anxiety or irritability” (priority 2007, published 2009).

For assay [1], the system named is α4β3δ receptors. Kind of assay: Whole cell patch clamp of GABA-gated current, recombinant receptors in HEK-293 cells. Format: cell-based, human or mouse α4, rat β3, human δ. The note with it: 30 nM THP. The text has this: (§1) Recombinant receptors: Transfection—Plasmids obtained from S. Vicini (rat α1, α5, β2, β3 and γ2), P. Whiting (human α4 and δ) and N. L. Harrison (mouse α4) were propagated in E coli DH5α and prepared using Qiagen Maxi- or Midi-prep kits. (Rat, mouse and human α1, β2, β3 and γ2 subunits are identical or nearly identical.) All receptors were transfected at a 1:1:1 ratio, except α1β2γ2 (1:1:5)^12, α4βδ (5:1:5)^13 and α4β2γ2 (5:1:1). HEK-293 cells were maintained in medium (DMEM:Ham's F-12 1:1) supplemented with 10% fetal calf serum at 37° C. in a humid 5% CO2 atmosphere. Cells were transfected using calcium phosphate or Polyfect (Qiagen) and co-transfected with enhanced green fluorescent protein (ratio of DNA to eGFP was 6:1 or 10:1 depending on the DNA concentration) for visualization. α4-containing GABAA receptors required 2-3 d for maximal levels of expression; all other receptors were recorded 1-2 d after transfection. Because mouse α4 and human α4-containing receptors yielded the same results, the currents were averaged together.
(§2) Whole cell patch clamp recording—GABA-gated currents were recorded at room temperature (20-22° C.) at a holding potential of −50 mV^14. […] Currents were recorded using an Axopatch 1D amplifier (Axon Instruments) filtered at 2 kHz (four-pole Bessel filter) and detected at 10 kHz (pClamp 5.1). […]
In general terms: The patch-clamp technique gives a direct electrical read-out from membranes.

The target in assay [2] is T1, α1β2γ2 receptors (Rattus norvegicus, UniProt P62813+P63138).
T1 construct: expressed in transfected cells; host or cells: HEK-293
The assay is described as above. Format: cell-based. The note with it: 30 nM THP. From the text: (§3) Recombinant receptors: Transfection—Plasmids obtained from S. Vicini (rat α1, α5, β2, β3 and γ2), P. Whiting (human α4 and δ) and N. L. Harrison (mouse α4) were propagated in E coli DH5α and prepared using Qiagen Maxi- or Midi-prep kits. (Rat, mouse and human α1, β2, β3 and γ2 subunits are identical or nearly identical.) All receptors were transfected at a 1:1:1 ratio, except α1β2γ2 (1:1:5)^12, α4βδ (5:1:5)^13 and α4β2γ2 (5:1:1). HEK-293 cells were maintained in medium (DMEM:Ham's F-12 1:1) supplemented with 10% fetal calf serum at 37° C. in a humid 5% CO2 atmosphere.
(§4) The pipet solution contained (in mM): N-methyl-D-glucamine chloride 120, Cs4BAPTA 5 (Calbiochem), Mg-ATP 5, and an ATP regeneration system (20 mM Tris phosphocreatine and creatine kinase). Internal [Cl^−] or the holding potential were varied, using gluconate as the anion, to alter the direction of Cl^− flow, corrected for the junction potential.
(§5) HEK-293 cells were maintained in medium (DMEM:Ham's F-12 1:1) supplemented with 10% fetal calf serum at 37° C. in a humid 5% CO2 atmosphere.

In assay [3] the test system is α4β2γ2 receptors. The assay is described as above. The note with it: 30 nM THP. It counts as cell-based, human or mouse α4, rat β2, rat γ2.
Excerpt: as §1, §2

Assay [4] relates to α5β2/3γ2 receptors. Described as above. Format: cell-based, rat. The note with it: 30 nM THP.
Excerpt: as §3, §4, §5

The test system of assay [5] is CA1 hippocampal pyramidal cells. Kind of assay: Tonic GABAergic current, perforated-patch voltage-clamp, hippocampal slice. It counts as cell-based, mouse. The procedure: Tonic current was recorded as the difference current produced by the selective GABAA receptor antagonist gabazine (120 μM) before and after 30 nM THP^4,29, while gramicidin perforated-patch recordings^33 were accomplished using 140 mM KCl plus 25 μg ml^−1 gramicidin in the pipet solution, recorded when the access resistance dropped to <60 MΩ after tight seal formation. Estimates of the direction of Cl^− current were obtained by recording using tight-seal cell-attached techniques^31 (>1 GΩ seal) in current clamp mode. A downward deflection signified outward (i.e., hyperpolarizing) Cl^− current.
One complication of whole-cell patch clamp recording is that normal ionic gradients are disrupted. Therefore, in order to verify that THP reduced tonic GABAergic currents in intact cells under conditions of unperturbed internal Cl^−, we directly recorded pharmacologically isolated tonic GABAergic current from the soma using perforated-patch voltage-clamp techniques in the hippocampal slice.

T1 sequence (P62813 28-455): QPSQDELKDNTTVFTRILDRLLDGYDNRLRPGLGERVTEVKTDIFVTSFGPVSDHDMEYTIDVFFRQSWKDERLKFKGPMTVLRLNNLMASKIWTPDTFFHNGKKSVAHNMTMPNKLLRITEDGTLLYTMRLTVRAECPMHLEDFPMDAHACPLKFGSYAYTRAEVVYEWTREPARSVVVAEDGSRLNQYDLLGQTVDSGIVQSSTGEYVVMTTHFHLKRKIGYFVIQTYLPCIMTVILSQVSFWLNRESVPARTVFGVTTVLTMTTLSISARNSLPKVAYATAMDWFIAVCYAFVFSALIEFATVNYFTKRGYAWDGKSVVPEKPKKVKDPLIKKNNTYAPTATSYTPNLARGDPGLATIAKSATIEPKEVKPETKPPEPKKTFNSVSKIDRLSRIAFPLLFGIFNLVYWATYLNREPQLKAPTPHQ
T1 sequence (P63138 25-474 limits assumed): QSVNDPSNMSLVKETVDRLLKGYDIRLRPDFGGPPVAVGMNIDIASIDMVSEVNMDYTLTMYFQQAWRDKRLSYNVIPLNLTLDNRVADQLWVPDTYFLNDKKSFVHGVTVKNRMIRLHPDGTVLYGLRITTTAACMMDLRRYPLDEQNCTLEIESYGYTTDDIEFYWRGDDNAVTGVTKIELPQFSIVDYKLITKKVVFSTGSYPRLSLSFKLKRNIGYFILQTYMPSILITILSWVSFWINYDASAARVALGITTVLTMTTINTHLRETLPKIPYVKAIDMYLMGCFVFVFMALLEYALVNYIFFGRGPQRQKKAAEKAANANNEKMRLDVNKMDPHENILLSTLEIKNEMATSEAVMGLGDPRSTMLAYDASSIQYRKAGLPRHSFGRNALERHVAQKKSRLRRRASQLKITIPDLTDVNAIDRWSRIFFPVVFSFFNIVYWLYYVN
T1 sequence (P18508 39-466 partner): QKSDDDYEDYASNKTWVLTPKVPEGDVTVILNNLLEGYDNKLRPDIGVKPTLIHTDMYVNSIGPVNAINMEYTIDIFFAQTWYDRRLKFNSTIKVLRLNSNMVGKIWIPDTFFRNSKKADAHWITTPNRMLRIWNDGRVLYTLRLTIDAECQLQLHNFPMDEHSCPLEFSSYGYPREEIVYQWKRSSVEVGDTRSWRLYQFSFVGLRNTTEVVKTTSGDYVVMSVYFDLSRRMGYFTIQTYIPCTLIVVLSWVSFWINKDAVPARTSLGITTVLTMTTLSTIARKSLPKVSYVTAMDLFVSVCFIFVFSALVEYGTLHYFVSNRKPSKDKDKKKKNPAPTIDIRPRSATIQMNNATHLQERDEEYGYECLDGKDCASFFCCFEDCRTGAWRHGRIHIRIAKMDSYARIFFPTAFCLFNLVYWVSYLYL

For `CC(=O)[C@H]1CC[C@H]2[C@@H]3CC[C@H]4C[C@H](O)CC[C@]4(C)[C@H]3CC[C@]12C` [THP, 3α-OH-5α[β]-pregnan-20-one], the “effect on outward current” value in assay [1], in assay [2], in assay [3] and in assay [4] was “either increased or had no effect” in each case. In addition, the “depression of outward GABAergic current” value in assay [5] (30 nM THP, pubertal, 1 μM TTX, 1 μM GABA) is 40±8%. Also, the “effect on post-synaptic GABAergic tonic current” value in assay [5] (before puberty) was “had no effect”. Moreover, the “effect on reversal potential” value in assay [5] (pubertal) is “did not alter the reversal potential”. Further, the “effect on GABA-gated conductance (gabazine-sensitive slope)” value in assay [5] (pubertal, 10 mV steps −60 to −40 mV) is “decreased the GABA-gated conductance”.
